{
  "source": "patent US8399440B2",
  "about": "“Disease modifying anti-arthritic activity of 2-methoxyestradiol” (EntreMed, Inc., priority 2006, dated 2013)",
  "key": {"[1]": {"system": "Collagen-Induced Arthritis", "experiment": "Collagen-induced arthritis (UCLA studies)", "format": "in vivo, Rat (Louvain)"}, "[2]": {"system": "Adjuvant-Induced Arthritis", "experiment": "Adjuvant arthritis, clinical arthritis severity", "format": "in vivo, Rat (Lewis)", "conditions": "for arthritis severity (clinical score) by day 14, mean: vehicle reached score 11"}, "[3]": {"system": "PMNL migration to arthritic joints", "experiment": "51Cr-labeled PMNL migration to arthritic joints", "format": "in vivo, Rat (Lewis)", "text": "Rat blood PMNL were isolated from a donor arthritic rat by hydroxyethyl starch (Hespan; Dupont Merck, Wilmington, Del.) exchange transfusion performed through a needle inserted in a femoral vein. The exchanged blood was collected into heparin and acid-citrate-dextrose (ACD, formula A; Fenwal-Travenol, Malton, ON) and the leukocyte-rich plasma was harvested during 1 g sedimentation of red blood cells. The PMNL were then isolated by centrifugation on discontinuous Percoll density gradients of 63% Percoll above 74% Percoll with 10% autologous plasma and calcium and magnesium-free Tyrode's solution (TyS^−/−) for the balance of the suspending medium. After centrifugation (350×g, 30 min at 22° C.) the purified PMNL (>95%) were harvested from the layer above the 74% plasma-Percoll cushion and after washing with TyS^−/−−10% plasma, the cells were radiolabeled with 75 μCi/5×10^7 cells of Na2^51CrO4 (GE Healthcare Bio-Sciences Inc., Baie d'Urfé, QC). After the cells were washed, they were injected i.v. into rats at a dose of 10^7 51Cr-labeled PMNL per animal bearing approximately 1-2×10^5 cpm. These cells were allowed to circulate and migrate for 2 h prior to sacrifice of the rats.\nAt the time the rats were killed, cardiac blood was obtained to measure the blood leukocyte count and the leukocyte and plasma associated radioactivity. Joints were dissected and segments of limbs sectioned to include carpal, metacarpal, talar and metatarsal joints for analysis as previously reported (Issekutz et al. Lab Invest. (1991), 64:656-63 and Issekutz et al. Arthritis Rheum. (2001), 44:1428-37). The content of ^51Cr in the joints, as well as in dermal skin sites and internal organs, was determined with a Wallac LKB 1280 gamma counter (Fisher Scientific, Nepean, ON). Accumulated isotope in the tissue was expressed as cpm/10^6 cpm injected i.v."}, "[4]": {"system": "spleen", "experiment": "Splenomegaly and spleen histology in adjuvant arthritis", "format": "in vivo, Rat (Lewis)", "procedure": "During the course of AA in the rat, splenomegaly is a prominent feature due to splenitis, lymphoid hyperplasia and even abscess formation. Therefore the splenic enlargement in these animals was monitored for any effect of 2ME2 on this parameter. In rats that were treated with vehicle, spleen weights increased dramatically, increasing nearly three-fold.\nA histological examination of the spleens was undertaken in the different groups. The appearance of a normal rat spleen (A) and vehicle-treated spleen (B)."}, "[5]": {"target": "T1, estrogen receptor α (Homo sapiens, UniProt P03372)", "T1 sequence (P03372 1-595)": "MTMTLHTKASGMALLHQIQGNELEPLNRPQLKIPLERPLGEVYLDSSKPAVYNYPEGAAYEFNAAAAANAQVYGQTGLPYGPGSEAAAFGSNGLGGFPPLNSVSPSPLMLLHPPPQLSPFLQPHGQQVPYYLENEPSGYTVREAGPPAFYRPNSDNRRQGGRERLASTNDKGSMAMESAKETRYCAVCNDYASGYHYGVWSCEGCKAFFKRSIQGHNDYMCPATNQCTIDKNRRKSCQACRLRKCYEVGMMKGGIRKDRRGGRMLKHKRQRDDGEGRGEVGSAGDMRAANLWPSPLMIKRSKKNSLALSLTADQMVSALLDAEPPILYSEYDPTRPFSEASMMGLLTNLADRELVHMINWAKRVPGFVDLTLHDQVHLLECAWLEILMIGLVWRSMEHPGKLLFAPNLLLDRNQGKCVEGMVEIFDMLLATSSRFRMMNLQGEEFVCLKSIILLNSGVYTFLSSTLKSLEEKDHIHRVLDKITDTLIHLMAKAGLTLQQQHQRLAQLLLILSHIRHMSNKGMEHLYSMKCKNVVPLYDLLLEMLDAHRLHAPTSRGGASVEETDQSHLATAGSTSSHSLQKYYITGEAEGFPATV", "conditions": "LaVallee et al. 2002; cited from earlier work"}, "[6]": {"system": "endothelial cell", "experiment": "Endothelial cell proliferation in vitro"}, "[7]": {"system": "lymph node cells", "experiment": "Ex vivo proliferation of lymph node cells from treated rats", "quoted_text": "Because of the effect of 2ME2 treatment on arthritis severity and the response in the spleen during AA, the T lymphocyte reactivity to mitogens the Mycobacterial purified protein derivative (PPD) antigen was evaluated. […] The effect of various concentrations of 2ME2 in vitro on this proliferative response was evaluated. […] To further assess the effect of 2ME2 on lymphocyte responsiveness, lymph node cells harvested from rats treated with 2ME2 (30 mg/kg/d) from day 6-14 post-immunization were tested for proliferative response to PPD and the mitogens, Con A and PHA and compared to lymphocytes from vehicle-treated animals."}, "[8]": {"conditions": "Dalhousie Study #1, 30, 100 mg/kg/d PO"}},
  "note": "pIC50: −log10 of the molar value.",
  "data": [
    {"smiles": "COc1cc2c(cc1O)CC[C@@H]1[C@@H]2CC[C@]2(C)[C@@H](O)CC[C@@H]12", "note": "[2ME2, 2-methoxyestradiol]", "values": [
      {"measurement": "onset of disease", "setting": "[1]; UCLA Study #1, PO", "result": "Delays onset"},
      {"measurement": "inhibition of clinical arthritic score and bone erosion", "setting": "[1]; UCLA Study #1, prevention 30, 100 mg/kg/d PO, treatment 10, 30, 100 mg/kg/d PO", "result": "Dose dependent"},
      {"measurement": "inhibition of clinical arthritic score, inflammation, and bone erosion, cartilage degradation and pannus formation", "setting": "[1]; UCLA Study #2, treatment from day 10, 50 mg/kg BID, 100 or 300 mg/kg/d PO or 60 mg/kg/d SC osmotic pumps", "result": "Dose dependent"},
      {"measurement": "arthritis severity (clinical score) by day 14, mean", "setting": "[2]; 30 mg/kg/d i.p. initiated day 6 post-immunization", "result": 7.4},
      {"measurement": "modification of arthritis severity", "setting": "[2]; 30 mg/kg/d initiated on day 10 post-immunization", "result": "did not reach statistical significance"},
      {"measurement": "arthritis severity (clinical score) by day 14, mean", "setting": "[2]; 100 mg/kg/d i.p. initiated day 6 post-immunization", "result": 6.5},
      {"measurement": "arthritis severity", "setting": "[2]; 100 mg/kg/d initiated at onset of clinical arthritis, day 10 post-immunization", "result": "attenuation of arthritis severity"},
      {"measurement": "accumulation of 51Cr-labeled PMNL in hind limb joints", "setting": "[3]; 100 or 30 mg/kg/d initiated at day 6 (preclinical phase)", "result": "significantly decreased"},
      {"measurement": "immune cell migration to the joint", "setting": "[3]; [8]", "result": "Blocked"},
      {"measurement": "accumulation of 51Cr-labeled PMNL in joints", "setting": "[3]; delayed treatment starting on day 10, tendency for a decrease", "result": "did not reach significance"},
      {"measurement": "spleen histology", "setting": "[4]; 30 mg/kg/d from day 6-14 post-immunization, no increase in giant cells or abscess formation, no lymphoid hyperplasia", "result": "Only mild splenitis"},
      {"measurement": "increase in spleen weight (splenic enlargement)", "setting": "[4]; 30 mg/kg/d started on day 6 post-immunization", "result": "completely inhibited"},
      {"measurement": "splenic abscess formation, giant cells, and lymphoid hyperplasia", "setting": "[4]; [8]", "result": "Decreased"},
      {"measurement": "increase in spleen weight (splenic enlargement)", "setting": "[4]; high dose (100 mg/kg/d) started on day 6 post-immunization", "result": "completely inhibited"},
      {"measurement": "splenic enlargement", "setting": "[4]; treatment initiated at day 10", "result": "markedly inhibited"},
      {"measurement": "affinity for estrogen receptor α", "setting": "[5]", "result": "low affinity"},
      {"measurement": "IC50, endothelial cell proliferation", "setting": "[6]; optimal serum and endothelial cell growth supplements", "result": "approximately 0.5 μg/mL"},
      {"measurement": "concentration required for inhibition under optimal versus restricted growth conditions", "setting": "[6]; optimal serum and growth supplements versus restricted", "result": "two-fold higher concentration"},
      {"measurement": "pIC50", "setting": "[6]; read-out: IC50, endothelial cell proliferation, optimal serum and endothelial cell growth supplements", "result": "~5.82"},
      {"measurement": "concentration giving significant inhibition of endothelial cell proliferation", "setting": "[6]; restricted serum and growth factor", "result": 0.25, "unit": "µg/mL"},
      {"measurement": "proliferative response to PPD (DNA incorporation)", "setting": "[7]; lymphocytes from rats given 30 mg/kg/d day 6-14, compared to vehicle-treated", "result": "significantly reduced"},
      {"measurement": "proliferation induced by Con A or PHA", "setting": "[7]; lymphocytes from rats given 30 mg/kg/d day 6-14, no 2ME2 added to cultures", "result": "no difference"}
    ]}
  ]
}
